Legend:
[1] = tested on: AB22 cells (mouse mesothelioma cells); assay: Cell toxicity evaluation (WST assay) of HA-ABA-DOX in AB22; assay type: cell-based; conditions: 48 hours; for Cell growth inhibition effect (cell viability): DOX 10^−3 to 100 μg/mL
Description: As with the HA-ABA, the cell toxicity of HA-ABA-DOX in AB22 cells (mouse mesothelioma cells) was evaluated by WST assay.
Specifically, AB22 cells (mouse mesothelioma cells) were seeded on 24-well plates and incubated for 24 hours. The medium was then replaced with media having […] dissolved at different DOX concentrations (10^−3 μg/mL, 10^−2 μg/mL, 10^−1 μg/mL, 1 μg/mL, 10 μg/mL, 100 μg/mL). Cell viability (%) 48 hours after sample addition was then measured by WST-8 assay (Cell Counting Kit-8 Dojindo).
For purposes of comparison as a control test, cell toxicity was also evaluated using free DOX in place of HA-ABA-DOX.

[2] = Release test of DOX from HA-ABA-DOX (dialysis tube, PBS); assay type: physicochemical; conditions: PBS 37° C., pH 5.0, 6.0, 7.4
Description: Release of DOX from HA-ABA-DOX under different pH conditions was investigated in the same manner as in Example II-2. Specifically, 1 mL of an aqueous solution of the HA-ABA-DOX (1 mg/mL) obtained in Example II-3 above was placed in a dialysis tube (MWCO: 1 kDa), and shaken at 50 rpm while being incubated with 79 mL of PBS (37° C., pH=5.0, 6.0 7.4). The external solution (sustained release solution) was collected at specific time points, and new PBS was substituted for the entire amount. The drug concentration in the collected external solution (sustained release solution) was measured by UV-vis, and the release rate of the drug DOX was calculated.

[3] = tested on: AB22 cells (mouse mesothelioma cells); assay: Cell toxicity evaluation (WST assay) of HA-ABA-PMX in AB22; assay type: cell-based; conditions: 48 hours; for Cell growth inhibition effect (cell viability): PMX 10^−4 to 10 μg/mL
Description: (§1) As with the HA-ABA, the cell toxicity of HA-ABA-PMX in MeT-5A (human mesothelial cell line) and AB22 cells (mouse mesothelioma cells) was evaluated by WST assay.
(§2) Specifically, MeT-5A (human mesothelial cell line) and AB22 cells (mouse mesothelioma cells) were seeded on 24-well plates and incubated for 24 hours. The medium was then replaced with medium having HA-ABA-PMX dissolved at different PMX concentrations (10^−4 μg/mL, 10^−3 μg/mL, 10^−2 μg/mL, 10^−1 μg/mL, 1 μh/mL, 10 μg/mL). Cell viability (%) 48 hours after sample addition was then measured by WST-8 assay (Cell Counting Kit-8, Dojindo).

[4] = Release test of PMX from HA-ABA-PMX (dialysis tube, PBS); assay type: physicochemical
Description: The release behavior or PMX from HA-ABA-PMX at different pH values was investigated using a dialysis tube (MWCO: 1 kDa). […] The external solution (sustained release solution) was collected at specific time points, and new PBS was substituted for the entire amount. The drug concentration in the collected external solution (sustained release solution) was measured by UV-vis, and the release rate of the drug PMX was calculated.

[5] = tested on: MeT-5A (human mesothelial cell line); assay: Cell toxicity evaluation (WST assay) of HA-ABA-PMX in MeT-5A; assay type: cell-based; conditions: 48 hours; for Cell growth inhibition effect (cell viability): PMX 10^−4 to 10 μg/mL
Description: as §1, §2

[6] = Release test of Van from AL-ABA-Van solution (dialysis membrane, PBS); assay type: physicochemical
Description: The release behavior or Van from an AL-ABA-Van solution at different pH values was investigated using a dialysis membrane (pore size: 50 kDa). Specifically, 1 mL of an AL-ABA-Van solution of the AL-ABA-Van obtained in Example I-7 above dissolved in […] of pure water was injected into a dialysis membrane cut to 9 cm, and both ends of the dialysis membrane were tied with kite thread. This was placed in an 80 mL security, container, 79 mL of PBS solution was added, and the mixture was stirred at the maximum rotational speed with a 1 cm stirrer tip in a 37° C. thermostatic tank. 1.0 mL samples were taken from the solution in the security container at specific time points (1, 2, 3, 4, 6, 8, 12, 24, and 48 hours). The sample solutions were subjected to UV-vis spectrum measurement, the drug concentration in the solutions was assayed based on absorbance, and the release rate of the drug Van (vancomycin release %) was calculated. The above measurements were conducted with pH 5.0, pH 6.0 and pH 7.4 PBS solutions (n=4 at each pH).
For purposes of comparison as control tests, the same release testing was also performed with the AL-ABA-Van solution replaced by a mixed solution (AL+Van) of sodium alginate and vancomycin obtained by dissolving 3 mg/mL of sodium alginate (AL) (IL-6G, viscosity 50 to 80 mPa·s (1%), manufactured by Kimica Co., Ltd.) and 8.6 mg/mL of vancomycin (Van) in pure water, and by a solution (Van only) obtained by dissolving 8.6 mg/mL of vancomycin (Van) in pure water.

Molecule: benzaldehyde-modified hyaluronic acid-doxorubicin conjugate [HA-ABA-DOX]
- Concentration depressing cell viability compared with free DOX [1]: depressed cell viability at lower concentrations
- Cell growth inhibition effect (cell viability) [1]: dose-dependent cell growth inhibition effects
- pH dependence of DOX release [2]: selective drug release at low pH

Molecule: benzaldehyde-modified hyaluronic acid-pemetrexed conjugate [HA-ABA-PMX]
- Concentration reducing cell viability compared with free PMX and HA-ADH-PMX [3]: reduced cell viability at lower concentrations
- Cell growth inhibition effect (cell viability) [3]: dose-dependent cell growth inhibition effects
- PMX released (cumulative drug release) ([4]; PBS pH 5.0, 37° C., after 24 hours): more than 80%
- PMX not released ([4]; PBS pH 7.4, 37° C., after 24 hours): 40%
- pH dependence of PMX release ([4]; pH 5.0, 6.0, 7.4): released more rapidly at lower pH values
- Concentration reducing cell viability compared with free PMX and HA-ADH-PMX [5]: reduced cell viability at lower concentrations
- Cell growth inhibition effect (cell viability) [5]: dose-dependent cell growth inhibition effects

Molecule: benzaldehyde-modified alginic acid-vancomycin conjugate [AL-ABA-Van]
- Van released (cumulative release rate) ([6]; PBS pH 5.0, 37° C., after 10 hours): over 80%
- Van not released ([6]; PBS pH 7.4, 37° C., after 10 hours): ~50%
- pH dependence of Van release behavior ([6]; pH 5.0, 6.0, 7.4): released more rapidly the lower the pH

Molecule: Nc1nc2[nH]cc(CCc3ccc(C(=O)N[C@@H](CCC(=O)O)C(=O)O)cc3)c2c(=O)[nH]1 [Free PMX, Pemetrexed, reference compound]
- Cell growth inhibition effect (cell viability) [3]: dose-dependent cell growth inhibition effects
- PMX released ([4]; control solutions, within 2 hours): almost all
- Cell growth inhibition effect (cell viability) [5]: dose-dependent cell growth inhibition effects

Molecule: COc1cccc2c1C(=O)c1c(O)c3c(c(O)c1C2=O)C[C@@](O)(C(=O)CO)C[C@@H]3O[C@H]1C[C@H](N)[C@H](O)[C@H](C)O1 [free DOX, Doxorubicin, reference compound]
- Cell growth inhibition effect (cell viability) [1]: dose-dependent cell growth inhibition effects

Molecule: CN[C@H](CC(C)C)C(=O)N[C@H]1C(=O)N[C@@H](CC(N)=O)C(=O)N[C@H]2C(=O)N[C@H]3C(=O)N[C@H](C(=O)N[C@H](C(=O)O)c4cc(O)cc(O)c4-c4cc3ccc4O)[C@H](O)c3ccc(c(Cl)c3)Oc3cc2cc(c3O[C@@H]2O[C@H](CO)[C@@H](O)[C@H](O)[C@H]2O[C@H]2C[C@](C)(N)[C@H](O)[C@H](C)O2)Oc2ccc(cc2Cl)[C@H]1O [Van, Vancomycin, reference compound]
- Van released ([6]; control solutions, first 10 hours, pH 5.0, 6.0, 7.4): almost all
- pH dependence of Van release behavior ([6]; pH 5.0, 6.0, 7.4): no difference in release behavior depending on pH

Reference: patent publication US20230285577A1, “POLYSACCHARIDE DERIVATIVE, POLYSACCHARIDE DERIVATIVE-DRUG CONJUGATE, AND METHOD FOR PRODUCING SAME” (priority 2020, published 2023)
